# Literature values as cited in patent US12257342B2, “Phenylephrine hydrochloride ready-to-use solution” (Hikma Pharmaceuticals USA Inc., priority 2015, dated 2025).
# Tested on: α−1 adrenergic receptor
# Conditions: following an intravenous bolus administration
compound,measurement,value
"CNC[C@H](O)c1cccc(O)c1.Cl [Phenylephrine hydrochloride, (−)-m-Hydroxy-α-[(methylamino)methyl]benzyl alcohol hydrochloride]",onset of blood pressure increase,rapid
same,persistence of the blood pressure effect,up to 20 minutes
